Data taken from patent publication US4551273A, “Analgesic peptide and process for the preparation thereof” (Eisai Co., Ltd., priority 1983, dated 1985).

Columns and labels:
[1] = tested on: guinea pig longitudinal muscle of ileum; assay: Assay with guinea pig longitudinal muscle of ileum (inhibition of electrically stimulated contraction); assay type: tissue-based
Protocol: (A) Assay with guinea pig longitudinal muscle of ileum
This assay was carried out according to the method reported by H. W. Kosterlitz et al. A mature guinea pig was sacrificed by cutting its jugular and subjected to an abdominal operation to take out its ileum as a piece of 40 to 50 cm in length from a region 15 to 20 cm apart from the ileocecal region. Then it was immediately introduced into Ringer's solution and cut into 10 cm portions. The longitudinal muscle was peeled off from each piece by using a scalpel and an applicator, wound with a string and suspended in an isothermal glass cell of 6 ml in volume. Subsequently it was stimulated electrically (0.1 Hz, 0.5 ms, 80-90 V) with platinum electrodes fitted at the upper and lower sides of the cell to record the resulting contractions through a transducer.
H. W. Kosterlitz, A. A. Waterfield: Annu. Rev. Pharmacol., 15, 29 (1975).

[2] = tested on: writhing syndrome in ddY male mouse; assay: Acetic acid writhing assay; assay type: in vivo; details: for ED50, Method (A), intravenous / ED50, Method (A), intraventricular: mouse; for ED50, Method (A), intravenous: intravenous (tail vein) administration, acetic acid 10 min after sample; for ED50, Method (A), intraventricular: intraventricular administration, acetic acid 5 min after sample
Protocol: (§1) The following two methods (A) and (B) were employed to examine the analgesic effects of the sample resulting from intravenous or intraventricular administration.
(§2) The sample and control were injected to the tail vein in the case of intravenous administration and to the side cerebral ventricle in the case of intraventricular administration according to a method reported by Haley and McCormick(1).
(A) Acetic acid writhing assay
0.1 ml/10 g of a 0.7% solution of acetic acid was administered to a ddY male mouse of 20 to 26 g in body weight by an intraabdominal injection to examine the inhibiting effect on writhing syndrome which was mainly observed as a stretching of the hind legs as an indication of the analgesic effect. Acetic acid was administered intraabdominally five min after the intraventricular administration and 10 min after the intravenous administration of the sample. Then the resulting writhing syndromes were counted for 15 min.

[3] = tested on: biting response induced by pinching the mouse tail; assay: Tail pinch assay; assay type: in vivo; details: intraventricular administration
Protocol: as §1, §2
Response time had been previously determined by a pressure stimulation to select the mice which had responded within 3 sec for the experiment. According to a method reported by Takagi et al.(3), the degree of pain was scored in the following three stages depending on the response time; 0 (shorter than four sec), 1 (four to eight sec), 2 (longer than eight sec). The analgesic effect was calculated by the following equation: [formula]

[4] = tested on: mouse vas deferens; assay: Assay with mouse vas deferens (inhibition of electrically stimulated contraction); design: species or system isolated tissue
Protocol: (B) Assay with mouse vas deferens
This assay was carried out according to the method reported by Hughes et al. A mature male mouse was decapitated and phlebotomized. Then it was immediately subjected to an abdominal operation to take out its right and left vas deferens. Sperm clogged in the ducts was forced out with a pincette in Ringer's solution and both ends of the two ducts were united with a string to form a ring. Then it was stimulated electrically (0.1 Hz, 1 ms, 90 V) in the same manner as described in (A).
Hughes H. W., Kosterlitz H. W., Leslie F. M.: Br. J. Pharmacol., 53, 371 (1975).

[5] = peptide purified from pig duodenum; cited from earlier work
[6] = administered intraventricularly; cited from earlier work
[7] = target: kappa-receptor (Homo sapiens, UniProt P41145); details: subclass of opiate receptor; different from the μ-receptor; cited from earlier work
Chain of kappa-receptor (P41145 whole entry): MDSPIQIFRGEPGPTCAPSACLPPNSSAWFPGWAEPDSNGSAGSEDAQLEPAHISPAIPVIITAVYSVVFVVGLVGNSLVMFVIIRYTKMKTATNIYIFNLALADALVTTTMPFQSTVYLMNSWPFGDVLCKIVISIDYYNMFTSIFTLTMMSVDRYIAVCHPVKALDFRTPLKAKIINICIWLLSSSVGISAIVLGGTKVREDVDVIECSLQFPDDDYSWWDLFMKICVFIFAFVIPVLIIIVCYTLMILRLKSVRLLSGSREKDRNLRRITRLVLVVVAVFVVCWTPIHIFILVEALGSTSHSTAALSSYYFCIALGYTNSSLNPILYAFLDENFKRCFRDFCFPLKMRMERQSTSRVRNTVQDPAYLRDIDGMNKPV

| Compound | IC50 ([1]; concentration required to decrease electrically stimulated contraction to 50%, guinea pig ileum longitudinal muscle, read-out: IC50, Method (A)) | inhibition of contraction, fold as highly as morphine ([1]; guinea pig longitudinal muscle of ileum, relative to morphine) | analgesic effect compared with morphine on a molar basis ([2]; intravenous administration) | ED50, Method (A), intravenous [2] | ED50, Method (A), intraventricular [2] | ED50, Method (B), intraventricular [3] | IC50 ([4]; concentration required to decrease electrically stimulated contraction to 50%, read-out: IC50, Method (B)) | inhibition of contraction, fold as highly as morphine ([4]; relative to morphine) | morphine-like activity relative to morphine [5] | analgesic effect [6] | receptor selectivity [7] |
| --- | --- | --- | --- | --- | --- | --- | --- | --- | --- | --- | --- |
| CC[C@@H](C)[C@@H](NC(=O)[C@H](CCCNC(=N)N)NC(=O)[C@H](CCCNC(=N)N)NC(=O)[C@H](CC(C)C)NC(=O)[C@H](Cc1ccccc1)NC(=O)CNC(=O)CNC(=O)[C@H](Cc1ccc(O)cc1)NC)C(=O)N[C@@H](CCCNC(=N)N)C(=O)N1CCC[C@H]1C(=O)N[C@@H](CCCCN)C(=O)N[C@H](CC(C)C)C(=O)N[C@@H](CCCCN)C(=O)N[C@@H](Cc1c[nH]c2ccccc12)C(N)=O [Compound of the present invention, N-Me-Tyr-Gly-Gly-Phe-Leu-Arg-Arg-D.Ile-Arg-Pro-Lys-D.Leu-Lys-Trp-NH2] | 0.35 ± 0.2 nM | approximately 270 fold | higher than that of morphine | 3.4 nmol/head | 0.017 nmol/head | 0.017 nmol/head | 1.1 ± 0.4 nM | approximately 970 fold |  |  |  |
| CN1CC[C@]23c4c5ccc(O)c4O[C@H]2[C@@H](O)C=C[C@H]3[C@H]1C5 [Morphine, reference compound] |  |  |  | 32 nmol/head | 0.63 nmol/head | 0.24 nmol/head |  |  |  |  |  |
| Tyr-Gly-Gly-Phe-Leu-Arg-Arg-Ile-Arg-Pro-Lys-Leu-Lys-Trp-Asp-Asp-Gln (YGGFLRRIRPKLKWDDQ; printed: Tyr-Gly-Gly-Phe-Leu-Arg-Arg-Ile-Arg-Pro-Lys-Leu-Lys-Trp-Asp-Asp-Gln) [prototype peptide, opioid peptide from pig duodenum, found earlier by some of the inventors; called prototype peptide in b11] |  |  |  |  |  |  |  |  | several hundred times as high as morphine | high analgesic effect | combined selectively with a kappa-receptor |
